Assay results taken from US20040138207A1, “Antitumor agents” (priority 2001, published 2004).
Values joined by “and” are separate entries in the source; they are usually repeats but may differ in a detail not shown here. Identical values can stand only once. Like-named read-outs stand apart in the source and are kept apart here.

Legend:
[1] = tested on: large bowel cancer; details: large bowel cancer-bearing mice; cited from earlier work
[2] = Example 4 side effect parameters in BxPC-3 bearing nude mice; type: in vivo
Protocol: (§1) A total of 3×10^6 cells of a human pancreatic cancer cell line BxPC-3 was injected into the dorsal side skin of female Balb/c nude mice (6 weeks of age). When the tumor volume reached to about 110 mm^3, 60, 200 or 600 mg/kg per day of the compound A was orally administered in a similar manner to that described in Example 2, every day by dividing the daily dose into two doses per day (n=5). Also, 0.5% methylcellulose solution was administered in the same schedule to the control group. The administration period was 14 days.
(§2) As a comparative compound, a known pancreatic cancer therapeutic agent Gemcitabine (GEM) was used in the same test. GEM was intravenously administered at a dose of 60, 120 or 240 mg/kg per day, once in three days. Physiological saline was administered to the control group in the same schedule.
The tumor growth inhibition ratio in the compound A-treated group is shown in Table 3, and that in the GEM-treated group in Table 4, together with various parameters which indicate the degree of side effects.

[3] = tested on: human pancreatic cancer cell line BxPC-3; assay: Example 4 comparison with gemcitabine, tumor growth in BxPC-3 bearing nude mice; type: in vivo
Protocol: as §1, §2
The tumor growth inhibition ratio was calculated by same calculation formula in Example 2.

[4] = tested on: gastrin-stimulated gastric acid secretion; details: dog, 0.01 mg/kg oral administration; cited from earlier work
[5] = tested on: human pancreatic cancer cell line PANC-1; assay: Example 1 antitumor action in PANC-1 bearing Balb/c nude mice; type: in vivo; details: PANC-1, 200 mg/kg per day p.o., 49 days
Protocol: (§3) Three to 10×10^6 cells of human pancreatic cancer cell lines (BxPC-3 and PANC-1), human large bowel cancer cell lines (HT29 and COLO320DM) and a human gastric cancer cell line (MKN28) were injected into the dorsal side skin of female Balb/c nude mice. Starting on the next day of the subcutaneous injection of cancer cells, 200 mg/kg per day of the compound A was suspended in 0.5% methylcellulose and orally administered every day by dividing the daily dose into two doses per day. Also, 0.5% methylcellulose solution was administered in the same schedule to the control group. Using calipers, the tumor diameter was measured periodically until the next day of the final administration. The tumor volume and tumor growth inhibition ratio were calculated by the following calculation formulae.
(§4) Tumor volume (mm^3)=½×breadth (mm)^2×length (mm)
(§5) Tumor growth inhibition ratio (%)=[(tumor volume of control group—tumor volume of compound A administration group)/tumor volume of control group]×100

[6] = tested on: human gastric cancer cell line MKN28; assay: Example 1 antitumor action in MKN28 bearing Balb/c nude mice; type: in vivo; details: MKN28, 200 mg/kg per day p.o., 20 days
Protocol: as §3, §4, §5

[7] = tested on: human pancreatic cancer cell line BxPC-3; assay: Example 1 antitumor action in BxPC-3 bearing Balb/c nude mice; type: in vivo; details: BxPC-3, 200 mg/kg per day p.o. from day after injection, 23 days
Protocol: as §3, §4, §5

[8] = tested on: human pancreatic cancer cell BxPC-3; assay: Example 2 antitumor action in BxPC-3 cancer-bearing mice (established tumor); type: in vivo; details: 21 days, start at about 120 mm^3
Protocol: (§6) In human pancreatic cancer cell BxPC-3 bearing mice, administration of the compound A was started when the tumor volume reached to about 120 mm^3 in a similar manner to that described in the test example 1. Its dose per day was 200 or 600 mg/kg, and the administration period was 21 days.
The tumor growth inhibition ratio was calculated by the following calculation formula.
Tumor growth inhibition ratio (%)={[(tumor volume of control group on the administration-finished day−tumor volume of control group before commencement of the administration)−(tumor volume of compound A-treated group on the administration-finished day−tumor volume of compound A-treated group before commencement of the administration)]/(tumor volume of control group on the administration-finished day−tumor volume of control group before commencement of the administration)}×100

[9] = tested on: human large bowel cancer cell line COLO320DM; assay: Example 1 antitumor action in COLO320DM bearing Balb/c nude mice; type: in vivo; details: 200 mg/kg per day p.o., 21 days
Protocol: as §3, §4, §5

[10] = tested on: human large bowel cancer cell line HT29; assay: Example 1 antitumor action in HT29 bearing Balb/c nude mice; type: in vivo; details: HT29, 200 mg/kg per day p.o., 27 days
Protocol: as §3, §4, §5

[11] = tested on: human large bowel cancer cell COLO320DM; assay: Example 3 comparison with other gastrin/CCK-B antagonist in COLO320DM bearing mice; type: in vivo; details: 10 days
Protocol: In human large bowel cancer cell COLO320DM bearing mice, the administration of compound A was started when the tumor volume reached to about 120 mm^3 in a similar manner to that described in the Example 2. Its dose per day was 60 or 200 mg/kg, and the administration period was 10 days. As a comparative compound, (3RS)-N-(1-(1-tert-butylcarbonylmethyl)-2,3-dihydro-2-oxo-5-(2-pyridyl)-1H-1,4-benzodiazepin-3-yl)-N′-(3-(dimethylamino)phenyl)urea whose data on inhibitory effect of pentagastrin-stimulus gastric acid secretion in a dog are disclosed as “compound of Example 38” in the aforementioned WO 93/16999 was administered in the same manner at a dose of 200 mg/kg.
The tumor growth inhibition ratio was calculated in a similar manner to that described in Example 2. The tumor growth inhibition ratio when 60 or 200 mg/kg of the compound A was administered was 20 or 27%, respectively.

[12] = Example 2 toxicity (body weight, side effects) in BxPC-3 cancer-bearing mice; type: in vivo
Protocol: as §6

[13] = tested on: human large bowel cancer; details: without exogenous gastrin stimulation, cited from earlier work
[14] = tested on: cancer cell proliferation; details: group of no gastrin stimulation; cited from earlier work
[15] = daily dose of 600 mg/kg continuously for 21 days

CCCN(CCC)C(=O)C(CCC(=O)O)NC(=O)c1ccccc1 (stereo not drawn) [proglumide]
antitumor effect [1]: appropriate antitumor effect | mortality rate of mice [1]: reduced

Nc1ccn([C@@H]2O[C@H](CO)[C@@H](O)C2(F)F)c(=O)n1 [GEM, Gemcitabine, reference compound]
dead cases ([2]; 240 mg/kg i.v. once in three days, n=5): 3/5 dead cases | MTD at 14 days ([2]; female, Balb/c nude, mouse, in vivo, iv, i.v. once in three days, BxPC-3 bearing mice, read-out: MTD (maximum tolerated dose)): 120 mg/kg | Tumor growth inhibition ratio ([3]; 60 mg/kg i.v. once in three days): 22.2% and 22.2 ± 26.7% | Tumor growth inhibition ratio ([3]; 120 mg/kg i.v. once in three days): 80.2% and 80.2 ± 20.1%

CNc1cccc(NC(=O)N[C@@H]2N=C(c3ccccn3)c3ccccc3N(CC(=O)C(C)(C)C)C2=O)c1 [compound A, (3R)-N-(1-(1-tert-butylcarbonylmethyl)-2,3-dihydro-2-oxo-5-(2-pyridyl)-1H-1,4-benzodiazepin-3-yl)-N′-(3-(methylamino)phenyl)urea]
inhibition of gastrin-stimulated gastric acid secretion [4]: 50% | Tumor growth inhibition ratio [5]: 52% | Tumor growth inhibition ratio [6]: 31% | Tumor growth inhibition ratio [7]: 65% | Tumor growth inhibition ratio ([8]; 200 mg/kg per day): 48% | Tumor growth inhibition ratio ([8]; 600 mg/kg per day): 79% | Tumor growth inhibition ratio [9]: 47% | Tumor growth inhibition ratio ([3]; 60 mg/kg p.o. per day, 14 days): 19.3 ± 23.6% | Tumor growth inhibition ratio ([3]; 200 mg/kg p.o. per day, 14 days): 25.1% | Tumor growth inhibition ratio ([3]; 200 mg/kg p.o. per day, 14 days, listed as Compound A): 25.1 ± 21.1% | Tumor growth inhibition ratio ([3]; 600 mg/kg p.o. per day, 14 days): 78.2 ± 28.3% | Tumor growth inhibition ratio [10]: 36% | Tumor growth inhibition ratio ([11]; 60 mg/kg per day): 20% | Tumor growth inhibition ratio ([11]; 200 mg/kg per day): 27% | Body weight ([12]; 200 mg/kg dose group, on the 21st day): 23.8 ± 0.5 g | Body weight ([12]; 200 mg/kg dose group, the day before commencement of administration): 22.1 ± 0.5 g | Body weight ([12]; 600 mg/kg dose group, on the 21st day): 23.3 ± 0.7 g | Body weight ([12]; 600 mg/kg dose group, the day before commencement of administration): 21.4 ± 0.6 g | influence on the mouse body weight [12, 15]: did not exert influence | side effects [12, 15]: not observed

C[C@](Cc1c[nH]c2ccccc12)(NC(=O)OC1[C@H]2C[C@@H]3C[C@@H](C[C@H]1C3)C2)C(=O)NC[C@H](NC(=O)CCC(=O)O)c1ccccc1 (stereo partly drawn) [CI-988]
growth inhibitory action ([13]; 25 mg/kg oral): showed a growth inhibitory action | growth inhibitory action ([13]; 50 mg/kg oral): not found

CN(C)c1cccc(NC(=O)NC2N=C(c3ccccn3)c3ccccc3N(CC(=O)C(C)(C)C)C2=O)c1 (racemic) [comparative compound, (3RS)-N-(1-(1-tert-butylcarbonylmethyl)-2,3-dihydro-2-oxo-5-(2-pyridyl)-1H-1,4-benzodiazepin-3-yl)-N′-(3-(dimethylamino)phenyl)urea, reference compound]
tumor growth inhibitory action ([11]; 200 mg/kg): did not show

Cc1cccc(NC(=O)N[C@@H]2N=C(c3ccccc3)c3ccccc3N(C)C2=O)c1 [L-365260]
inhibition of cancer cell proliferation [14]: not found
